Measurements as given in PubChem BioAssay AID1963424 (Molecular Pharmacology Branch, DTP, NCI, 2024).

System: 327498-153-R-J2-PDC complex spheroid growth, % test/control
Assay: Anticancer human tumor 327498-153-R-J2-PDC patient-derived uterine carcinosarcoma cell line growth inhibition [Asc]
Details: for IC50: curve of first compound; for viability, T/C: stronger effect = lower value
Summary of the method: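 Spheroid model: tumor line + HUVEC + hMSC. Single agents and combinations; top conc. at/near clinical Cmax (10 microM if undetermined), half-log dilutions. DMSO stocks at 800-fold test concentration.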

[1] = second compound 0.1 µM, first compound 0.0316 µM
[2] = second compound 0.1 µM, first compound 0.1 µM
[3] = second compound 0.1 µM, first compound 0.316 µM
[4] = second compound 0.1 µM, first compound 1 µM
[5] = second compound 0.1 µM, first compound 3.16 µM
[6] = second compound 0.1 µM, first compound 10 µM
[7] = second compound 0.316 µM, first compound 0.0316 µM
[8] = second compound 0.316 µM, first compound 0.1 µM
[9] = second compound 0.316 µM, first compound 0.316 µM
[10] = second compound 0.316 µM, first compound 1 µM
[11] = second compound 0.316 µM, first compound 3.16 µM
[12] = second compound 0.316 µM, first compound 10 µM
[13] = second compound 1 µM, first compound 0.0316 µM
[14] = second compound 1 µM, first compound 0.1 µM
[15] = second compound 1 µM, first compound 0.316 µM
[16] = second compound 1 µM, first compound 1 µM
[17] = second compound 1 µM, first compound 3.16 µM
[18] = second compound 1 µM, first compound 10 µM
[19] = second compound 0.03 µM, first compound 0.0316 µM
[20] = second compound 0.03 µM, first compound 0.1 µM
[21] = second compound 0.0949 µM, first compound 0.0316 µM
[22] = second compound 0.0949 µM, first compound 0.1 µM
[23] = second compound 0.3 µM, first compound 0.0316 µM
[24] = second compound 0.3 µM, first compound 0.1 µM
[25] = second compound 0.949 µM, first compound 0.0316 µM
[26] = second compound 0.949 µM, first compound 0.1 µM
[27] = second compound 3 µM, first compound 0.0316 µM
[28] = second compound 3 µM, first compound 0.1 µM
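Note: spheroids exposed to compound for 7 days after 3 days of growth.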
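Throughout, for viability, T/C: 100% = DMSO vehicle control wells.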

## C=CC(=O)N1CCN(c2nc(=O)n(-c3c(C)ccnc3C(C)C)c3nc(-c4c(O)cccc4F)c(F)cc23)C(C)C1 (stereo not given) + Cc1c(S(C)(=O)=O)c(-c2cc(F)cc(N3CCN(c4ccc(NS(=O)(=O)c5ccc(NC(CCN6CCC(C(=O)OCCCP(=O)(O)O)CC6)CSc6ccccc6)c(S(=O)(=O)C(F)(F)F)c5)cc4)CC3)c2)c(-c2ccc(Cl)cc2)n1C(C)C
Second compound 0.1 µM
  IC50: > 10 µM
Second compound 0.316 µM
  IC50: > 10 µM
Second compound 1 µM
  IC50: > 10 µM
Second compound 3.16 µM
  IC50: > 10 µM
Second compound 10 µM
  IC50: > 10 µM
[1]
  viability, T/C: 78.9%
[2]
  viability, T/C: 68.5%
[3]
  viability, T/C: 66.7%
[4]
  viability, T/C: 69.5%
[5]
  viability, T/C: 63.4%
[6]
  viability, T/C: 64.8%
[7]
  viability, T/C: 73.5%
[8]
  viability, T/C: 71.6%
[9]
  viability, T/C: 62.4%
[10]
  viability, T/C: 63.2%
[11]
  viability, T/C: 60.2%
[12]
  viability, T/C: 56.4%
[13]
  viability, T/C: 83.2%
[14]
  viability, T/C: 71.9%
[15]
  viability, T/C: 60.7%
[16]
  viability, T/C: 71.2%
[17]
  viability, T/C: 62.1%
[18]
  viability, T/C: 64.7%
Second compound 3.16 µM, first compound 0.0316 µM
  viability, T/C: 84.6%
Second compound 3.16 µM, first compound 0.1 µM
  viability, T/C: 72.4%
Second compound 3.16 µM, first compound 0.316 µM
  viability, T/C: 62.4%
Second compound 3.16 µM, first compound 1 µM
  viability, T/C: 67.4%
Second compound 3.16 µM, first compound 3.16 µM
  viability, T/C: 65.4%
Second compound 3.16 µM, first compound 10 µM
  viability, T/C: 48.3%
Second compound 10 µM, first compound 0.0316 µM
  viability, T/C: 179%
Second compound 10 µM, first compound 0.1 µM
  viability, T/C: 164%
Second compound 10 µM, first compound 0.316 µM
  viability, T/C: 164%
Second compound 10 µM, first compound 1 µM
  viability, T/C: 136%
Second compound 10 µM, first compound 3.16 µM
  viability, T/C: 167%
Second compound 10 µM, first compound 10 µM
  viability, T/C: 151%

## NC1CCC(NC2CC2c2ccccc2)CC1 (stereo not given) + CCN1C(C(=O)NC23CCC(C(=O)O)(CC2)CC3)C(c2cccc(Cl)c2F)C2(C(=O)Nc3cc(Cl)ccc32)C12CCCCC2
Second compound 0.03 µM
  IC50: > 0.1 µM
Second compound 0.0949 µM
  IC50: > 0.1 µM
Second compound 0.3 µM
  IC50: < 0.000316 µM
Second compound 0.949 µM
  IC50: < 0.000316 µM
Second compound 3 µM
  IC50: < 0.000316 µM
Second compound 0.03 µM, first compound 0.000316 µM
  viability, T/C: 103%
Second compound 0.03 µM, first compound 0.001 µM
  viability, T/C: 94.5%
Second compound 0.03 µM, first compound 0.00316 µM
  viability, T/C: 93.8%
Second compound 0.03 µM, first compound 0.01 µM
  viability, T/C: 92.4%
[19]
  viability, T/C: 103%
[20]
  viability, T/C: 97.3%
Second compound 0.0949 µM, first compound 0.000316 µM
  viability, T/C: 84.3%
Second compound 0.0949 µM, first compound 0.001 µM
  viability, T/C: 84.4%
Second compound 0.0949 µM, first compound 0.00316 µM
  viability, T/C: 83.4%
Second compound 0.0949 µM, first compound 0.01 µM
  viability, T/C: 84.9%
[21]
  viability, T/C: 83.9%
[22]
  viability, T/C: 87.4%
Second compound 0.3 µM, first compound 0.000316 µM
  viability, T/C: 53%
Second compound 0.3 µM, first compound 0.001 µM
  viability, T/C: 47.9%
Second compound 0.3 µM, first compound 0.00316 µM
  viability, T/C: 43.8%
Second compound 0.3 µM, first compound 0.01 µM
  viability, T/C: 39.1%
[23]
  viability, T/C: 49.8%
[24]
  viability, T/C: 43.6%
Second compound 0.949 µM, first compound 0.000316 µM
  viability, T/C: 10.8%
Second compound 0.949 µM, first compound 0.001 µM
  viability, T/C: 12.7%
Second compound 0.949 µM, first compound 0.00316 µM
  viability, T/C: 15.8%
Second compound 0.949 µM, first compound 0.01 µM
  viability, T/C: 11.6%
[25]
  viability, T/C: 14.7%
[26]
  viability, T/C: 16.5%
Second compound 3 µM, first compound 0.000316 µM
  viability, T/C: 4.55%
Second compound 3 µM, first compound 0.001 µM
  viability, T/C: 5.4%
Second compound 3 µM, first compound 0.00316 µM
  viability, T/C: 2.47%
Second compound 3 µM, first compound 0.01 µM
  viability, T/C: 7.42%
[27]
  viability, T/C: 5.29%
[28]
  viability, T/C: 4.14%

## C=CC(=O)N1CCN(c2nc(=O)n(-c3c(C)ccnc3C(C)C)c3nc(-c4c(O)cccc4F)c(F)cc23)C(C)C1 (stereo not given) + CNC(C)C(=O)NC1CN(S(=O)(=O)c2cccc(S(=O)(=O)N3CCC4CCC(C(=O)NC(c5ccccc5)c5ccccc5)N4C(=O)C(NC(=O)C(C)NC)C3)c2)CCC2CCC(C(=O)NC(c3ccccc3)c3ccccc3)N2C1=O
Second compound 0.01 µM
  IC50: > 10 µM
Second compound 0.0316 µM
  IC50: > 10 µM
Second compound 0.1 µM
  IC50: > 10 µM
Second compound 0.316 µM
  IC50: > 10 µM
Second compound 1 µM
  IC50: > 10 µM
Second compound 0.01 µM, first compound 0.0316 µM
  viability, T/C: 84.2%
Second compound 0.01 µM, first compound 0.1 µM
  viability, T/C: 96%
Second compound 0.01 µM, first compound 0.316 µM
  viability, T/C: 75%
Second compound 0.01 µM, first compound 1 µM
  viability, T/C: 74.6%
Second compound 0.01 µM, first compound 3.16 µM
  viability, T/C: 77.8%
Second compound 0.01 µM, first compound 10 µM
  viability, T/C: 64.6%
Second compound 0.0316 µM, first compound 0.0316 µM
  viability, T/C: 83.5%
Second compound 0.0316 µM, first compound 0.1 µM
  viability, T/C: 77.9%
Second compound 0.0316 µM, first compound 0.316 µM
  viability, T/C: 70.5%
Second compound 0.0316 µM, first compound 1 µM
  viability, T/C: 67%
Second compound 0.0316 µM, first compound 3.16 µM
  viability, T/C: 72.2%
Second compound 0.0316 µM, first compound 10 µM
  viability, T/C: 62.9%
[1]
  viability, T/C: 86%
[2]
  viability, T/C: 79.4%
[3]
  viability, T/C: 84.5%
[4]
  viability, T/C: 77.6%
[5]
  viability, T/C: 70.4%
[6]
  viability, T/C: 67.6%
[7]
  viability, T/C: 89.4%
[8]
  viability, T/C: 83.3%
[9]
  viability, T/C: 80.7%
[10]
  viability, T/C: 73.8%
[11]
  viability, T/C: 77.2%
[12]
  viability, T/C: 75.5%
[13]
  viability, T/C: 90.6%
[14]
  viability, T/C: 78.8%
[15]
  viability, T/C: 85.4%
[16]
  viability, T/C: 77%
[17]
  viability, T/C: 72.2%
[18]
  viability, T/C: 69.7%

## C=CC(=O)N1CCN(c2nc(=O)n(-c3c(C)ccnc3C(C)C)c3nc(-c4c(O)cccc4F)c(F)cc23)C(C)C1 (stereo not given) + CCN1C(C(=O)NC23CCC(C(=O)O)(CC2)CC3)C(c2cccc(Cl)c2F)C2(C(=O)Nc3cc(Cl)ccc32)C12CCCCC2
Second compound 0.03 µM
  IC50: > 10 µM
Second compound 0.0949 µM
  IC50: < 0.0316 µM
Second compound 0.3 µM
  IC50: < 0.0316 µM
Second compound 0.949 µM
  IC50: < 0.0316 µM
Second compound 3 µM
  IC50: < 0.0316 µM
[19]
  viability, T/C: 80.2%
[20]
  viability, T/C: 66.8%
Second compound 0.03 µM, first compound 0.316 µM
  viability, T/C: 61.3%
Second compound 0.03 µM, first compound 1 µM
  viability, T/C: 61%
Second compound 0.03 µM, first compound 3.16 µM
  viability, T/C: 60.4%
Second compound 0.03 µM, first compound 10 µM
  viability, T/C: 47.7%
[21]
  viability, T/C: 48.1%
[22]
  viability, T/C: 43.3%
Second compound 0.0949 µM, first compound 0.316 µM
  viability, T/C: 39.1%
Second compound 0.0949 µM, first compound 1 µM
  viability, T/C: 40.8%
Second compound 0.0949 µM, first compound 3.16 µM
  viability, T/C: 31%
Second compound 0.0949 µM, first compound 10 µM
  viability, T/C: 23.5%
[23]
  viability, T/C: 25.8%
[24]
  viability, T/C: 22.3%
Second compound 0.3 µM, first compound 0.316 µM
  viability, T/C: 21.1%
Second compound 0.3 µM, first compound 1 µM
  viability, T/C: 13.9%
Second compound 0.3 µM, first compound 3.16 µM
  viability, T/C: 15.8%
Second compound 0.3 µM, first compound 10 µM
  viability, T/C: 10.9%
[25]
  viability, T/C: 6.85%
[26]
  viability, T/C: 10.2%
Second compound 0.949 µM, first compound 0.316 µM
  viability, T/C: 5.74%
Second compound 0.949 µM, first compound 1 µM
  viability, T/C: 6.83%
Second compound 0.949 µM, first compound 3.16 µM
  viability, T/C: 5.12%
Second compound 0.949 µM, first compound 10 µM
  viability, T/C: 4.58%
[27]
  viability, T/C: 2.47%
[28]
  viability, T/C: 2.14%
Second compound 3 µM, first compound 0.316 µM
  viability, T/C: 2.66%
Second compound 3 µM, first compound 1 µM
  viability, T/C: 2.75%
Second compound 3 µM, first compound 3.16 µM
  viability, T/C: 3.23%
Second compound 3 µM, first compound 10 µM
  viability, T/C: 2.77%
